This is an account of results in publication PMC6467689 (ACS infectious diseases, 2018).

Assay [1] has as its target T1, MukB (Escherichia coli, UniProt P22523). The assay can be described thus: magnetic bead DNA bridging pull-down. It counts as biochemical. The settings on record: 20 mM HEPES pH 7.7, 50 mM NaCl, 2 mM MgCl2, 5% glycerol, 1 mM DTT.
The target of assay [2] is T1, MukB. The assay can be described thus: SPR. The settings on record: 25 uM compound, 20 mM HEPES-KOH pH 7.0, 50 mM NaCl, 0.5% DMSO. It counts as binding.

T1 sequence (P22523 whole entry): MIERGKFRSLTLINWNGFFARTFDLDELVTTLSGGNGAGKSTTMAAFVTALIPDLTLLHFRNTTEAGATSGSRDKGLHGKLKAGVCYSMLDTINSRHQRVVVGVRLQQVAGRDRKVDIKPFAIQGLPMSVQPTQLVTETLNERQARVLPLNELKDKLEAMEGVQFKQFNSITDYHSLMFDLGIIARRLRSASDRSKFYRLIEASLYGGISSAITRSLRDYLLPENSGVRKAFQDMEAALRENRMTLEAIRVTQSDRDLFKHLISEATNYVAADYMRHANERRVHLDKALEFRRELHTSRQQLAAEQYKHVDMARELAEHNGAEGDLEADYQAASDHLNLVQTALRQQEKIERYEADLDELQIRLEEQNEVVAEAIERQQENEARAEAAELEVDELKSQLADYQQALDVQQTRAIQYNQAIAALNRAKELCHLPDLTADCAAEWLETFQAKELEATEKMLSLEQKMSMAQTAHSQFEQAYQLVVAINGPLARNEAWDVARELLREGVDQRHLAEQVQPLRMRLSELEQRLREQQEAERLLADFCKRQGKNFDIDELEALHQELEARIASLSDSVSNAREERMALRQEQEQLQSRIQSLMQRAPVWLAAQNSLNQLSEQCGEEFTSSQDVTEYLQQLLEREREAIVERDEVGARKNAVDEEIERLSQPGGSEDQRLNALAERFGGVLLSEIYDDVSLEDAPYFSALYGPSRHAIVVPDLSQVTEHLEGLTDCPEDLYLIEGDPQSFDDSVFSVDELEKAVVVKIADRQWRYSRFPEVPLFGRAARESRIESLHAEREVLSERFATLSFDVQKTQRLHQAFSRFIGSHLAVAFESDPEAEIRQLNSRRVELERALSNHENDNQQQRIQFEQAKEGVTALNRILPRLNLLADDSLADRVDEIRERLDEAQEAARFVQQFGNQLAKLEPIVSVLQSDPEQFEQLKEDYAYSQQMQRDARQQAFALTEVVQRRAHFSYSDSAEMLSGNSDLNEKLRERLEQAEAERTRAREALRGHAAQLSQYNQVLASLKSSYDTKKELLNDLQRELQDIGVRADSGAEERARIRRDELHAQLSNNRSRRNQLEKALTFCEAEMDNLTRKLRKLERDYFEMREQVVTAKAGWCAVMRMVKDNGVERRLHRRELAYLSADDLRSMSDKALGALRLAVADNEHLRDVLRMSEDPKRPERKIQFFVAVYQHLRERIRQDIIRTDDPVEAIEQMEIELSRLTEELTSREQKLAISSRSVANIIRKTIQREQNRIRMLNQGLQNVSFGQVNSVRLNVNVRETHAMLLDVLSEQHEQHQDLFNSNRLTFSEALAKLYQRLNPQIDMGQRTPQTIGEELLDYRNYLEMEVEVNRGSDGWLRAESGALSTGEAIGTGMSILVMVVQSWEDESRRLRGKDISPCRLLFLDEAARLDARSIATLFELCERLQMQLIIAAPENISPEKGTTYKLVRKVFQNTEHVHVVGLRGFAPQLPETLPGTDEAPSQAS

Consider `Cc1c2ccncc2c(C)c2c1[nH]c1ccccc12` [NSC71795], for which the “inhibition of DNA bridging” value against MukB [1] was “Michellamine B, NSC71795 and, to a smaller degree, NSC45383, inhibit MukB mediated DNA bridging”. At MukB [2], the “SPR (Biacore, MukB immobilised on CM5 chip)” value is “A much weaker binding could be detected for NSC71795 (ellipticine) and NSC45383 (streptonigrin)”.
Turning to `COc1cc(C)cc2c(-c3c(O)cc(O)c4c3C[C@H](C)N[C@H]4C)cc(-c3cc(-c4c(O)cc(O)c5c4C[C@H](C)N[C@H]5C)c4cc(C)cc(OC)c4c3O)c(O)c12` [NSC661755, Michellamine B], the “inhibition of DNA bridging” value against MukB [1] is given as “Michellamine B, NSC71795 and, to a smaller degree, NSC45383, inhibit MukB mediated DNA bridging”.
In the case of `COC1=C(N)C(=O)c2nc(-c3nc(C(=O)O)c(C)c(-c4ccc(OC)c(OC)c4O)c3N)ccc2C1=O` [NSC45383], on MukB [1], the “inhibition of DNA bridging” value is given as “Michellamine B, NSC71795 and, to a smaller degree, NSC45383, inhibit MukB mediated DNA bridging”. Moreover, at MukB [2], the “SPR (Biacore, MukB immobilised on CM5 chip)” value was “A much weaker binding could be detected for NSC71795 (ellipticine) and NSC45383 (streptonigrin)”.
